The results in this text go back to ChEMBL document CHEMBL5321237 (Eur J Med Chem, 2023).

Data set [1] addresses T1, Macrophage colony-stimulating factor 1 receptor (Mus musculus, UniProt P09581).
T1 sequence (P09581 whole entry): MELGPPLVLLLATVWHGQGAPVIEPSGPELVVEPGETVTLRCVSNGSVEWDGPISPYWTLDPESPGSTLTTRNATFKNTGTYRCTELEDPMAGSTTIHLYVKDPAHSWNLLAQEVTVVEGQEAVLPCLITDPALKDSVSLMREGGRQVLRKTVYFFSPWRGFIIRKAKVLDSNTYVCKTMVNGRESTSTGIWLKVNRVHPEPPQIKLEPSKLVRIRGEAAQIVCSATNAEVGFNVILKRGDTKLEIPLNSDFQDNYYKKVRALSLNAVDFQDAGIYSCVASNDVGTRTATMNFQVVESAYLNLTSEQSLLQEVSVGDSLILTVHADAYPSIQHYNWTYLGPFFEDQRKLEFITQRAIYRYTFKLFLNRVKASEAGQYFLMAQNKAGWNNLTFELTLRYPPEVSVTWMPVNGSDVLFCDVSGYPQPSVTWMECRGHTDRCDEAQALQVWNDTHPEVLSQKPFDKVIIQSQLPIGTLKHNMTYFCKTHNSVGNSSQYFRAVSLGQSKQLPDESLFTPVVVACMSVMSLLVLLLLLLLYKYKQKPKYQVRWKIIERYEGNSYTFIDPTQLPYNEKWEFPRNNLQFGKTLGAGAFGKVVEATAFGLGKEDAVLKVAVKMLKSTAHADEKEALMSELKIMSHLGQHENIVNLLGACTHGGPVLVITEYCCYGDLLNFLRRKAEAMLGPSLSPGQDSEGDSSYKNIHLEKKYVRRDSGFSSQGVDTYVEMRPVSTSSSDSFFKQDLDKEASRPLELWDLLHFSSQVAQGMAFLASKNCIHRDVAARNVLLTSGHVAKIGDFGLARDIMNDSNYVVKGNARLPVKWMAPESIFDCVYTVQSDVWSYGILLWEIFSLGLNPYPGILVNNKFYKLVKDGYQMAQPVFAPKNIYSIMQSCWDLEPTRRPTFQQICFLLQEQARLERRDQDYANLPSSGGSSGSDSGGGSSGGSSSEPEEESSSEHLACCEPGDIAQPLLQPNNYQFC
Kind of data set: Inhibition of CSF1-induced CSF1R signalling in mouse BMDM cells assessed as reduction in ERK1/2 phosphorylation preincubated for 30 mins followed by CSF1 addition and measured after 10 mins. Type of data set: cell-based.

A short description of data set [2]: Kinetic aqueous solubility of compound at pH 7.4 at 500 uM incubated for 90 mins by spectrophotometry analysis. In kind it is physicochemical. The note with it: buffer, read-out: Kinetic_solubility.
The target in data set [3] is T2, Ephrin type-B receptor 6 (Homo sapiens) (UniProt O15197).
T2 sequence (whole entry): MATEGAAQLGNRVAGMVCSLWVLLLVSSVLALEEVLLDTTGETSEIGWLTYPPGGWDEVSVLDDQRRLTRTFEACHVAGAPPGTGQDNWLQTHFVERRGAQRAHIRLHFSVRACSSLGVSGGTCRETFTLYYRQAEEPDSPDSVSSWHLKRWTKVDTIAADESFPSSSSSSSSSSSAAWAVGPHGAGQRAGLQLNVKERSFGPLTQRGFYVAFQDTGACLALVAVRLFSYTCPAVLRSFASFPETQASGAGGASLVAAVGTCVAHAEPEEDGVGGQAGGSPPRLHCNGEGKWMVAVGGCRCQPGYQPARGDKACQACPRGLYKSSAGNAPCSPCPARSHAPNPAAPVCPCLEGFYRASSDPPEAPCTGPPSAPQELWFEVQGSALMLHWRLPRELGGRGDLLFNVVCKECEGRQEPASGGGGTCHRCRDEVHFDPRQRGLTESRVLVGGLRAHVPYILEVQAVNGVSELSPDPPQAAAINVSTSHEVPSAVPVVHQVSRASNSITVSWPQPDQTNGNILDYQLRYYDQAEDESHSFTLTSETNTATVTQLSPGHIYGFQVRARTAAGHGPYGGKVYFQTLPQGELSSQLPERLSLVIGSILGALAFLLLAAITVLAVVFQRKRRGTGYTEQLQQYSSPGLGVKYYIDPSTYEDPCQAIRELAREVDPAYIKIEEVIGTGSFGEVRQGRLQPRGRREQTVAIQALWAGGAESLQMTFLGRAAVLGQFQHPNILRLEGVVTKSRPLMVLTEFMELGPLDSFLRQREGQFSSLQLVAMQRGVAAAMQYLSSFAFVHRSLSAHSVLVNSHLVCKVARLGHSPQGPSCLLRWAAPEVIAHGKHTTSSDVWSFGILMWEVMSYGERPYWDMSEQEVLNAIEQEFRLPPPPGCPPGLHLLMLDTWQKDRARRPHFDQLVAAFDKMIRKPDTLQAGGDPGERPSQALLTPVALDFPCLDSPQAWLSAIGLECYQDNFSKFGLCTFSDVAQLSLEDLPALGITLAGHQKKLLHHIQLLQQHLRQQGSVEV
The experiment in a line: Competitive binding affinity to human EPHB6 at 500 nM incubated for 1 hr by qPCR analysis relative to control.

Data set [4] in a line: Metabolic stability in human liver microsomes assessed as intrinsic clearance at 3 uM measured upto 50 mins by LC-MS analysis. Type of data set: ADME, Microsome.
Data set [5] concerns the target Mast/stem cell growth factor receptor Kit (Homo sapiens) (UniProt P10721). The experiment in a line: Inhibition of autoinhibited wild type human KIT binding to streptavidin-coated magnetic beads immobilized biotinylated ligand at 500 nM incubated for 1 hr by qPCR analysis relative to control. On the technique in general: Real-time PCR tracks product formation cycle by cycle.

The target of data set [6] is Platelet-derived growth factor receptor alpha (Homo sapiens) (UniProt P16234). Kind of data set: Inhibition of human PDGFRalpha binding to streptavidin-coated magnetic beads immobilized biotinylated ligand at 500 nM incubated for 1 hr by qPCR analysis relative to control.
Data set [7] deals with Tyrosine-protein kinase ABL1 (Homo sapiens), P00519 [H396P]. Kind of data set: Competitive binding affinity to human ABL1 H396P mutant at 500 nM incubated for 1 hr by qPCR analysis relative to control.

In brackets after ≈: the same amount, converted by molar mass.

Chain of Mast/stem cell growth factor receptor Kit (Homo sapiens) (P10721 whole entry): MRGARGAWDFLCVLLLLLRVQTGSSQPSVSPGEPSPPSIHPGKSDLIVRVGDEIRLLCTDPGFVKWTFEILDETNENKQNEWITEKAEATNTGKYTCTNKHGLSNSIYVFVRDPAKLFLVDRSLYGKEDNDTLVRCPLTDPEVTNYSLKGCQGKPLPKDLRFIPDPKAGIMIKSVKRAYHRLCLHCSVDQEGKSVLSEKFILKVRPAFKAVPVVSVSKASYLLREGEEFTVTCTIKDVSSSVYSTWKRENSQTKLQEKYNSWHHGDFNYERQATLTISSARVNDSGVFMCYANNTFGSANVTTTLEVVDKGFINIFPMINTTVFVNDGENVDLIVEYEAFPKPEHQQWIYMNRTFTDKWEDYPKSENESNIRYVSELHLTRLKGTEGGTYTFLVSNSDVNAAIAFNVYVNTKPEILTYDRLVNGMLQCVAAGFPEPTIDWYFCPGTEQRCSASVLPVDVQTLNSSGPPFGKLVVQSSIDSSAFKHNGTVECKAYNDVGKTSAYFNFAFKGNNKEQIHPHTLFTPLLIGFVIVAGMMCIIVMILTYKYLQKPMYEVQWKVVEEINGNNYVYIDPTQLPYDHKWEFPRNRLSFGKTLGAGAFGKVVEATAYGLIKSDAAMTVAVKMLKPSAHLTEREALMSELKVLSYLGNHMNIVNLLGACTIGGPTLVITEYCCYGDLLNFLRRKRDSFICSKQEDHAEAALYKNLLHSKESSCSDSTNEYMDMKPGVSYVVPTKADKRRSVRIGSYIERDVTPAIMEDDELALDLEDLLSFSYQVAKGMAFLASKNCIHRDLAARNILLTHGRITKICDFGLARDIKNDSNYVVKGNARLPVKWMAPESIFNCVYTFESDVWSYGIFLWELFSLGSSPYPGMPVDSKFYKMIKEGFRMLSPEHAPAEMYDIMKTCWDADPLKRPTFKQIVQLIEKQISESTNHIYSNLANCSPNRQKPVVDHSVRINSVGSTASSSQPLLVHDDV
Chain of Platelet-derived growth factor receptor alpha (Homo sapiens) (P16234 whole entry): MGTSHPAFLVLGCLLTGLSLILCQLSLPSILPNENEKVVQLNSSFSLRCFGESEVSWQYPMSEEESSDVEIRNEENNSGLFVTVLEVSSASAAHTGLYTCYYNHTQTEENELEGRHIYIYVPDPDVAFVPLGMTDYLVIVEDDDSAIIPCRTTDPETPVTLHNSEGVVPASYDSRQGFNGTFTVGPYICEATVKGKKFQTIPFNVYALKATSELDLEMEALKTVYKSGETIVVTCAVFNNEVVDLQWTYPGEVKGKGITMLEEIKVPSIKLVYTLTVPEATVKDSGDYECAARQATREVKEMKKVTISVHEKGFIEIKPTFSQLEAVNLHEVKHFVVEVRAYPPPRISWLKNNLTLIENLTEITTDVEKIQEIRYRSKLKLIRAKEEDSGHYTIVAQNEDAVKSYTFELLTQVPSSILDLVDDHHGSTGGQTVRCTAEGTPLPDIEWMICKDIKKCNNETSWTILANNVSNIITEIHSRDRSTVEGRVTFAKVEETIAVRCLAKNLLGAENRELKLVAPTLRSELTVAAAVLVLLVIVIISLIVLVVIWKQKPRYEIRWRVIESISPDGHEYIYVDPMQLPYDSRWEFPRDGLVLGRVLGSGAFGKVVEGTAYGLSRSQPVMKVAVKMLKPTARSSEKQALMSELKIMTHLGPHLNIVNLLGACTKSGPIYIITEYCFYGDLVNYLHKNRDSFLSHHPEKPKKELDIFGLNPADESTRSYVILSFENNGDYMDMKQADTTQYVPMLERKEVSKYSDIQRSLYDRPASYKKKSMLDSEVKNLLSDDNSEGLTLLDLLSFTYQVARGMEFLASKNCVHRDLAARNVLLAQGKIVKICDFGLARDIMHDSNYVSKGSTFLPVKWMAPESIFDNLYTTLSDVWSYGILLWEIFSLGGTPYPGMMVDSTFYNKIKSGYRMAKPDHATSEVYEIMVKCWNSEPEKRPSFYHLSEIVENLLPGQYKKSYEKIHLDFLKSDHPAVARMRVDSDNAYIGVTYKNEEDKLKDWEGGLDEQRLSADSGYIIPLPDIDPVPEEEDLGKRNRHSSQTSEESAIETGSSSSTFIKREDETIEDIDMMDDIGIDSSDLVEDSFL

Turning to `CN(CC1CCCC1)c1ncnc2[nH]c(-c3ccc(CO)cc3)nc12`, the IC50 in data set [1] came to 40 nM. The solubility kinetic at […], 500 µM in data set [2] is 3.5 µM (≈ 1.18 µg/mL). The Activity in data set [3] was found to be 87%; in data set [7], 96%. Further, in data set [4], the CLint was 36.4 µL/min/mg. Further, the inhibition in data set [5] and in data set [6] was 12% in each case.

One may read the IC50 as the midpoint of a concentration-inhibition curve. The term inhibition denotes the percentage by which the read-out fell short of the control. Higher therefore signals a response far below the control.
